Measured values reported in BindingDB's records for doi:10.1046/j.1471-4159.2000.740478.x (Janssen Research Foundation, 2000).
pKi: −log10 of the molar value. Several values for one entry are separate records, joined by “and”; a condition that tells them apart may be missing. Identical values can stand only once.

Molecular target: 5-hydroxytryptamine receptor 4 (Homo sapiens, UniProt Q13639)
Sequence (Q13639 whole entry): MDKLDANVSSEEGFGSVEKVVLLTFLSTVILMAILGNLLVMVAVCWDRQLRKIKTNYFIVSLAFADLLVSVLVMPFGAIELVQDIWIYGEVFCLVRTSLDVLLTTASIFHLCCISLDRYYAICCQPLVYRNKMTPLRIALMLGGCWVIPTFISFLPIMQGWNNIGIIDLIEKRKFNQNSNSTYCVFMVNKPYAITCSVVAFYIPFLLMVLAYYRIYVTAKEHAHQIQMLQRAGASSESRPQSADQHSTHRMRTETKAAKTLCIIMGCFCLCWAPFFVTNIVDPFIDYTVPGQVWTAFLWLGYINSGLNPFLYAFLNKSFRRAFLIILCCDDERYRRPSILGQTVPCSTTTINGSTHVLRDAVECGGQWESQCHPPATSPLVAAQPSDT

Structure (SMILES) | pKi
Cn1cc(C(=O)OCC2CCN(CCNS(C)(=O)=O)CC2)c2ccccc21 [GR 113808] | 9.51 and 9.30
COc1ccc2[nH]cc(C=NN=C(N)NCCCCO)c2c1 [SDZ-HTF-919] | 7.80 and 8.00 and 7.60
COc1ccc2[nH]cc(CCN)c2c1 [tryptamine, 5-Methoxy] | 6.10
CCCCN1CCC(COC(=O)c2cc(Cl)c(N)c3c2OCCO3)CC1 [CAS_121881] | 10.22 and 10.52
CCOc1cc(N)c(Cl)cc1C(=O)NCC1CN(Cc2ccc(F)cc2)CCO1 (stereo not given) [SMR000469200] | 6.70 and 6.20 and 6.90
